Tested on: CHIKV 181/clone25
Assay: CHIKV cytopathic effect (CPE) protection assay in Vero cells
Format: cell-based
Conditions: Chikungunya virus; CHIKV 181/clone25, Vero cells, MOI=0.01, 48 hrs, protection from CPE (crystal violet, absorbance 595nm)

| SMILES | EC50 |
| --- | --- |
| CN1C(=O)C(CC(=O)NC2CCCCC2)Sc2ncccc21 (stereo not drawn) [Example 19, N-cyclohexyl-2-(1-methyl-2-oxo-2,3-dihydro-1H-pyrido[2,3-b][1,4]thiazin-3-yl)acetamide] | > 100 µM |
| CN1C(=O)C(CC(=O)NC2=CCCCC2)Sc2ncccc21 (stereo not drawn) [Example 20, N-(cyclohex-1-en-1-yl)-2-(1-methyl-2-oxo-2,3-dihydro-1H-pyrido[2,3-b][1,4]thiazin-3-yl)acetamide] | 10 to 49.9 µM |
| COCCCNC(=O)CC1Sc2ncccc2N(C)C1=O (stereo not drawn) [Example 21, N-(3-methoxypropyl)-2-(1-methyl-2-oxo-2,3-dihydro-1H-pyrido[2,3-b][1,4]thiazin-3-yl)acetamide] | > 100 µM |
| CN1C(=O)C(CC(=O)NC2CCCC2)Sc2ncccc21 (stereo not drawn) [Example 22, N-cyclopentyl-2-(1-methyl-2-oxo-2,3-dihydro-1H-pyrido[2,3-b][1,4]thiazin-3-yl)acetamide] | 50 to 99.9 µM |
| CN1C(=O)C(CC(=O)NC2CCCCCC2)Sc2ncccc21 (stereo not drawn) [Example 23, N-cycloheptyl-2-(1-methyl-2-oxo-2,3-dihydro-1H-pyrido[2,3-b][1,4]thiazin-3-yl)acetamide] | 10 to 49.9 µM |
| CN1C(=O)C(CC(=O)NCc2ccc(F)cc2)Sc2ncccc21 (stereo not drawn) [Example 24, N-(4-fluorobenzyl)-2-(1-methyl-2-oxo-2,3-dihydro-1H-pyrido[2,3-b][1,4]thiazin-3-yl)acetamide] | < 10 µM |
| CN1C(=O)C(CC(=O)NCc2ccccc2C(F)(F)F)Sc2ncccc21 (stereo not drawn) [Example 25, 2-(1-methyl-2-oxo-2,3-dihydro-1H-pyrido[2,3-b][1,4]thiazin-3-yl)-N-(2-(trifluoromethyl)benzyl)aceta-mide] | > 100 µM |
| Cc1ccc(CNC(=O)CC2Sc3ncccc3N(C)C2=O)cc1 (stereo not drawn) [Example 26, 2-(1-methyl-2-oxo-2,3-dihydro-1H-pyrido[2,3-b][1,4]thiazin-3-yl)-N-(4-methylbenzyl)acetamide] | 10 to 49.9 µM |
| CN(Cc1ccccc1)C(=O)CC1Sc2ncccc2N(C)C1=O (stereo not drawn) [Example 27, N-benzyl-N-methyl-2-(1-methyl-2-oxo-2,3-dihydro-1H-pyrido[2,3-b][1,4]thiazin-3-yl)acetamide] | > 100 µM |
| CN(C)CCCNC(=O)CC1Sc2ncccc2N(C)C1=O (stereo not drawn) [Example 28, N-(3-(dimethylamino)propyl)-2-(1-methyl-2-oxo-2,3-dihydro-1H-pyrido[2,3-b][1,4]thiazin-3-yl)acetamide] | > 100 µM |
| CC(C)CCNC(=O)CC1Sc2ncccc2N(C)C1=O (stereo not drawn) [Example 29, N-isopentyl-2-(1-methyl-2-oxo-2,3-dihydro-1H-pyrido[2,3-b][1,4]thiazin-3-yl)acetamide] | < 10 µM |
| CN1C(=O)C(CC(=O)NCc2ccco2)Sc2ncccc21 (stereo not drawn) [Example 30, N-(furan-2-ylmethyl)-2-(1-methyl-2-oxo-2,3-dihydro-1H-pyrido[2,3-b][1,4]thiazin-3-yl)acetamide] | > 100 µM |
| CN1C(=O)C(CC(=O)N2CCCCCC2)Sc2ncccc21 (stereo not drawn) [Example 31, 3-(2-(azepan-1-yl)-2-oxoethyl)-1-methyl-1H-pyrido[2,3-b][1,4]thiazin-2(3H)-one] | > 100 µM |
| CC(C)N1CCN(C(=O)CC2Sc3ncccc3N(C)C2=O)CC1 (stereo not drawn) [Example 32, 3-(2-(4-isopropylpiperazin-1-yl)-2-oxoethyl)-1-methyl-1H-pyrido[2,3-b][1,4]thiazin-2(3H)-one] | > 100 µM |
| Cc1ccc(CNC(=O)CC2Sc3ncccc3N(C)C2=O)o1 (stereo not drawn) [Example 33, 2-(1-methyl-2-oxo-2,3-dihydro-1H-pyrido[2,3-b][1,4]thiazin-3-yl)-N-((5-methylfuran-2-yl)methyl)acetamide] | > 100 µM |
| CCCN1CCN(C(=O)CC2Sc3ncccc3N(C)C2=O)CC1 (stereo not drawn) [Example 34, 1-methyl-3-(2-oxo-2-(4-propylpiperazin-1-yl)ethyl)-1H-pyrido[2,3-b][1,4]thiazin-2(3H)-one] | > 100 µM |
| CC1CCCN(C(=O)CC2Sc3ncccc3N(C)C2=O)C1 (stereo not drawn) [Example 35, 1-methyl-3-(2-(3-methylpiperidin-1-yl)-2-oxoethyl)-1H-pyrido[2,3-b][1,4]thiazin-2(3H)-one] | > 100 µM |
| CC1CCN(C(=O)CC2Sc3ncccc3N(C)C2=O)CC1 (stereo not drawn) [Example 36, 1-methyl-3-(2-(4-methylpiperidin-1-yl)-2-oxoethyl)-1H-pyrido[2,3-b][1,4]thiazin-2(3H)-one] | > 100 µM |
| CN1C(=O)C(CC(=O)N2CCCC2)Sc2ncccc21 (stereo not drawn) [Example 37, 1-methyl-3-(2-oxo-2-(pyrrolidin-1-yl)ethyl)-1H-pyrido[2,3-b][1,4]thiazin-2(3H)-one] | > 100 µM |
| CN1C(=O)C(CC(=O)N2CCCCC2)Sc2ncccc21 (stereo not drawn) [Example 38, 1-methyl-3-(2-oxo-2-(piperidin-1-yl)ethyl)-1H-pyrido[2,3-b][1,4]thiazin-2(3H)-one] | > 100 µM |
| CC(NC(=O)CC1Sc2ncccc2N(C)C1=O)c1cccnc1 (stereo not drawn) [Example 39, 2-(1-methyl-2-oxo-2,3-dihydro-1H-pyrido[2,3-b][1,4]thiazin-3-yl)-N-(1-(pyridin-3-yl)ethyl)acetamide] | > 100 µM |
| CC1CCCCN1CCNC(=O)CC1Sc2ncccc2N(C)C1=O (stereo not drawn) [Example 40, 2-(1-methyl-2-oxo-2,3-dihydro-1H-pyrido[2,3-b][1,4]thiazin-3-yl)-N-(2-(2-methylpiperidin-1-yl)ethyl)acetamide] | > 100 µM |
| CN1C(=O)C(CC(=O)NCc2cccs2)Sc2ncccc21 (stereo not drawn) [Example 41, 2-(1-methyl-2-oxo-2,3-dihydro-1H-pyrido[2,3-b][1,4]thiazin-3-yl)-N-(thiophen-2-ylmethyl)acetamide] | 10 to 49.9 µM |
| CCN1C(=O)C(CC(=O)NCc2ccncc2)Sc2ncccc21 (stereo not drawn) [Example 42, 2-(1-ethyl-2-oxo-2,3-dihydro-1H-pyrido[2,3-b][1,4]thiazin-3-yl)-N-(pyridin-4-ylmethyl)acetamide] | > 100 µM |
| CCN1C(=O)C(CC(=O)NCc2ccccc2)Sc2ncccc21 (stereo not drawn) [Example 43, N-benzyl-2-(1-ethyl-2-oxo-2,3-dihydro-1H-pyrido[2,3-b][1,4]thiazin-3-yl)acetamide] | > 100 µM |
| CCN1C(=O)C(CC(=O)NCC2CCCCC2)Sc2ncccc21 (stereo not drawn) [Example 44, N-(cyclohexylmethyl)-2-(1-ethyl-2-oxo-2,3-dihydro-1H-pyrido[2,3-b][1,4]thiazin-3-yl)acetamide] | 10 to 49.9 µM |
| CCN1C(=O)C(CC(=O)N2CCCCCC2)Sc2ncccc21 (stereo not drawn) [Example 45, 3-(2-(azepan-1-yl)-2-oxoethyl)-1-ethyl-1H-pyrido[2,3-b][1,4]thiazin-2(3H)-one] | > 100 µM |
| CCN1C(=O)C(CC(=O)NCC2CC2)Sc2ncccc21 (stereo not drawn) [Example 46, N-(cyclopropylmethyl)-2-(1-ethyl-2-oxo-2,3-dihydro-1H-pyrido[2,3-b][1,4]thiazin-3-yl)acetamide] | > 100 µM |
| O=C(CC1Sc2ncccc2NC1=O)NCC1CCSCC1 (stereo not drawn) [Example 47, 2-(2-oxo-2,3-dihydro-1H-pyrido[2,3-b][1,4]thiazin-3-yl)-N-((tetrahydro-2H-thiopyran-4-yl)methyl)acetamide] | 10 to 49.9 µM |
| O=C(CC1Sc2ncccc2NC1=O)NCC1CCOCC1 (stereo not drawn) [Example 48, 2-(2-oxo-2,3-dihydro-1H-pyrido[2,3-b][1,4]thiazin-3-yl)-N-((tetrahydro-2H-pyran-4-yl)methyl)acetamide] | > 100 µM |
